# Measurements reported in paper PMC8282797, “Strictly regulated agonist-dependent activation of AMPA-R is the key characteristic of TAK-653 for robust synaptic responses and cognitive improvement” (Scientific Reports, 2021).
# Key:
# AMPA-R = experiment: Ca2+ influx assay using rat primary hippocampal neurons; type: cell-based
# Procedure: Ca^2+ influx assay using primary neurons was performed as previously described. After 5 days of culture, the cells plated on poly-D-lysine coated 96-well plates (Corning Incorporated) at 2 × 10^4 or 5 × 10^4 cells/well were used for experiments with PF-04958242 or TAK-653, respectively. Fluorescent calcium indicator dye solution (Calcium4 assay Kit, Dojindo, Kumamoto, Japan) in Ca^2+ reaction buffer (DMEM, HEPES and BSA) containing Probenecid (Dojindo) was added and incubated for 60 min in 5% CO2 at 37 °C. After washing once, the relative increases in intracellular Ca^2+ levels stimulated by compounds in the presence and absence of AMPA were monitored. Details are described in the Supplementary Information.
# Primary cultures of hippocampal neuronal cells were prepared from fetal Sprague-Dawley rats at 19 days of gestation. Rat embryos were decapitated and their whole brains were isolated. Hippocampi were dissected in ice-cold Hanks' Balanced Salt Solutions (HBSS) under a microscope and then dispersed into cells using a neural cell dispersion kit (Sumitomo Bakelite Co., Ltd., Tokyo, Japan). The dissociated cells were suspended in Neurobasal medium containing B27 supplement (Thermo Fisher Scientific Inc.), 2 mM L-glutamine (Lonza, Basel, Switzerland), 100 U/mL penicillin (Lonza), 100 μg/mL streptomycin (Lonza) and 20 μg/mL gentamicin sulfate (Lonza). The cells were plated on poly-D-lysine coated 96-well plates (Corning Incorporated) for Ca^2+ influx assay or on poly-L-lysine coated 96-well plates (Sumitomo Bakelite) for measurement of BDNF protein levels and cultured in a humidified CO2 incubator with 5% CO2 at 37°C.
# After 5 days of culture, the cells at 2×10^4 or 5×10^4 cells/well were used for experiments with PF-04958242 or TAK-653, respectively. For TAK-653, after removal of culture medium, 75 µL of fluorescent calcium indicator dye solution (Calcium4 assay Kit, Dojindo, Kumamoto, Japan) in Ca^2+ reaction buffer (DMEM, 10 mM HEPES and 0.1% BSA) containing 1.25 mM Probenecid (Dojindo) was added and incubated for 60 min in 5% CO2 at 37°C and washed once using 75 µL of fluorescent calcium indicator dye solution. After addition of 75 µL of fluorescent calcium indicator dye solution to each well again, the relative increases in intracellular Ca^2+ levels by compounds in the presence and absence of 5 μM AMPA were monitored for 8.5 min by fluorometric imaging plate reader. Activity of the compound was defined as fluorescence intensity integrated over the entire period of measurement. Intensity of 0% was defined as activity in the presence of only DMSO, while 100% was defined as activity in the presence of 5 μM AMPA and 10 μM HBT1. For PF-04958242, after removal of culture medium, 90 µL of fluorescent calcium indicator dye solution (Calcium4 assay Kit, Dojindo) in Ca^2+ reaction buffer (DMEM, 20 mM HEPES and 0.1% BSA) containing 2.5 mM Probenecid (Dojindo) was added and incubated for 60 min in 5% CO2 at 37°C. After addition of 90 µL of fluorescent calcium indicator dye solution to each well again, the relative increases in intracellular Ca^2+ levels by compounds in the presence and absence of 1 μM AMPA were monitored for 2 min in a microplate reader (CellLux, PerkinElmer, Waltham, MA, USA). Activity of the compound was defined as fluorescence intensity integrated over the entire period of measurement. 100% was defined as activity in the presence of 1 μM AMPA and 10 μM HBT1, while intensity of 0% was defined as activity in the presence of 1 μM AMPA or only DMSO for potentiator effect or agonistic effect, respectively. EC50 values were calculated by logistic regression analysis.
# naïve rats = experiment: Novel object recognition (NOR) test; type: in vivo, rat; conditions: p.o., rats
# Procedure: NOR tests were performed using male Long-Evans rats at 6 weeks old as previously described, with some modifications. On day 1, rats were allowed to habituate to the empty test box (a gray-colored polyvinyl chloride box (40 × 40 × 50 cm)) for 10 min individually. Testing comprised two 3-min trials called the acquisition trial and the retention trial that were separated by 48 h inter-trial intervals (ITIs). On day 2, in the acquisition trial, rats were allowed to explore two identical objects (A1 and A2) for 3 min. On day 4, in the retention trial, rats were again allowed to explore a familiar object (A3) and a novel object (B) for 3 min. The object exploration was defined as rats' licking, sniffing or touching the object with forelimbs while sniffing. TAK-653 or AMPA was orally or intraperitoneally, respectively, 2 h or 0.5 h prior to the acquisition and the retention trials. The NDI was calculated using the following equation: novel object interaction/total interaction × 100 (%).
# [1] = test system: MK-801-induced working memory deficit in rats; experiment: Radial arm maze (RAM) test, MK-801-induced working memory deficit; type: in vivo, rat; conditions: given 0.5 h before MK-801 0.08 mg/kg, s.c.
# Procedure: RAM tests were performed using 9-week-old male Long-Evans rats as previously described with a minor modification. Each arm was 50 cm long, 10 cm wide and 40 cm high, and the maze was elevated 50 cm above the floor. Long-Evans rats were food-restricted to 85% of free-feeding body weight throughout the experimental period. Rats were well trained to collect pellets placed on the edge of each arm. The learning criterion for the testing session was defined as 2 errors or fewer for 2 consecutive days. In the testing session, each rat was placed on the maze facing the fixed arm at the start of the trial. The entry of rats into each arm was recorded in sequence until all pellets in the 8 arms were consumed, or 5 min had elapsed. […] Thirty min after dosing of vehicle or MK-801, rats were placed on the maze. Details are described in the Supplementary Information.
# The experiment was performed using 9-week-old male Long-Evans rats as described previously (Zajaczkowski et al., 1996) with a minor modification. Each arm was 50 cm long, 10 cm wide and 40 cm high, and the maze was elevated 50 cm above the floor. After being fasted for 24 h, male Long-Evans rats were food-restricted to 85% of free-feeding body weight on the first day of exposure to the maze and throughout the experimental period. The experiment consists of two sessions, training and testing session. In the training session, rats were habituated to the maze and then trained. Reinforcement consisted of 3 food pellets (45 mg each) in the food cup was used. On the first day of habituation to the maze, reinforcements were placed near the entrance and at the mid-point of each arm. Three rats were placed on the maze at one time and allowed to explore and consume the pellets for 8 min. On the second day of habituation, each rat was placed on the maze and allowed 5 min to consume the pellets placed at the mid-point and in the food cup at the end of each arm. From the third day, reinforcement was placed in the food cup at the end of each arm. Rats were well trained to collect pellets placed on the edge of each arm. The learning criterion for the testing session was defined as 2 errors or less for two consecutive days. In the previous day of the testing session, baseline level of performance was qualified to confirm that rats completed collecting all pellets placed in the 8 arms with two errors or less. In the testing session, each rat was placed on the maze facing away from the experimenter and facing the fixed arm at the start of the trial. The entry of rats into each arm was recorded in sequence. Rats were allowed to explore until all pellets in the 8 arms were consumed, or 5 min had elapsed. Entry into an arm previously chosen was counted as an error. […] […] Thirty min after dosing of vehicle or MK-801, rats were placed on the maze. Data were indicated as the mean ± SEM in the testing session.
compound,measurement,setting,value
"CC(C)S(=O)(=O)N[C@H]1COC[C@H]1Oc1ccc(-c2ccc(C#N)s2)cc1 [PF-04958242, N-{(3S,4S)-4-[4-(5-cyano-2-thienyl)phenoxy]tetrahydrofuran-3-yl}propane-2-sulfonamide]",Agonistic effect: Ca2+ increase in the absence of AMPA,AMPA-R,potently produced a Ca^2+ increase in the absence of AMPA
same,Dose improving visual learning and memory in NOR test,naïve rats,≥ 0.1 mg/kg
same,Working memory in the RAM test,[1],did not improve
